Assay results reported in US11458106B2, “Lipid nanoparticles comprising lipophilic anti-inflammatory agents and methods of use thereof” (ASTRAZENECA AB, priority 2016, dated 2022).

Experiments:
mRNA 1 protein = test: Quantification of mRNA 1 protein in plasma; type: in vivo, mice; conditions: s.c. 0.3 mg mRNA/kg; for expression of mRNA 1 (plasma): Example 10, pro-drug in L608 (Merck-32) LNPs, vs. conventional LNPs (Sample S26); for protein expression (plasma mRNA 1 protein): Example 6, pro-drug in DLin-MC3-DMA LNPs, 0-24 h, vs. non-anti-inflammatory LNPs
Protocol: (§1) Different groups of 5 mice (female, age˜12 weeks, Crl:Cd1(ICR), Charles River) were administered with PBS (negative control) or mRNA 1 formulated in lipid nanoparticles. Prior to administration, the mice were lightly anaesthetized with Isoflurane 5% and the injection area was shaved. The formulations were then injected subcutaneously (5 ml/kg or 0.3 mg mRNA/kg) in the intrascapular region to different groups of mice. Post-dose blood samples were collected and plasma was prepared by centrifugation. Aliquots of plasma were transferred into cryo tubes (0.5 ml U-shaped polypropylene cryotubes (Sarstedt Microtube with cap Ref #72.730) and stored frozen until quantification of haptoglobin, cytokines/chemokines and mRNA 1 protein concentrations. In some studies, quantification was also carried out of lipophilic anti-inflammatory agent in plasma samples. At 24 hours after administration, clinical signs of inflammatory response was evaluated by gently pressing the finger over the injection area to determine edema and judged by visual inspection as edema or no edema in the different mice. The number of mice displaying visible signs of edema per group (each group having 5 mice) was summed to give an edema score of 0-5.
mRNA 1 protein was measured as a single analyte with the Milliplex Human Liver Protein Magnetic beads [Merck Millipore, Darmstadt, Germany]. The assay was performed using the Bioplex Multiplex Suspension Array System, Luminex 100TM] and Bioplex Manager 6.1 software curve fitting software [Bio-Rad Laboratories, Hercules, Calif.]. Briefly, the assay was performed according to a modified protocol based upon the manufacturers' instruction, with additional calibration points to extend the lower range of the standard curve. Sample data was back calculated from the standard curve (5PL curve fitting).

IL-6 = test: Quantification of cytokines/chemokines in plasma: IL-6; type: in vivo, mice; conditions: Example 10; pro-drug in L608 (Merck-32) LNPs, s.c. 0.3 mg mRNA/kg, 7 and 24 hours; vs. Sample S26
Protocol: (§2) Different groups of 5 mice (female, age˜12 weeks, Crl:Cd1(ICR), Charles River) were administered with PBS (negative control) or mRNA 1 formulated in lipid nanoparticles. Prior to administration, the mice were lightly anaesthetized with Isoflurane 5% and the injection area was shaved. The formulations were then injected subcutaneously (5 ml/kg or 0.3 mg mRNA/kg) in the intrascapular region to different groups of mice. Post-dose blood samples were collected and plasma was prepared by centrifugation. Aliquots of plasma were transferred into cryo tubes (0.5 ml U-shaped polypropylene cryotubes (Sarstedt Microtube with cap Ref #72.730) and stored frozen until quantification of haptoglobin, cytokines/chemokines and mRNA 1 protein concentrations. In some studies, quantification was also carried out of lipophilic anti-inflammatory agent in plasma samples. At 24 hours after administration, clinical signs of inflammatory response was evaluated by gently pressing the finger over the injection area to determine edema and judged by visual inspection as edema or no edema in the different mice. The number of mice displaying visible signs of edema per group (each group having 5 mice) was summed to give an edema score of 0-5. Plasma concentrations of murine cytokines/chemokines were measured by EMD Millipore's MILLIPLEX® MAP Mouse Cytokine magnetic bead kit (Merck KGaA, Darmstadt, Germany) for the simultaneous quantification of cytokines; IL-6, KC, MCP-1 and IP-10. The samples were first diluted 1:2 with Assay buffer then, together with standard's and QC's placed in a 96 well plate. A solution containing beads were added. The beads are magnetic microspheres each of which is coated with a specific antibody. The mixture was incubated over night at 4° C. and the reaction mixture was then incubated with Streptavidin-PE conjungate to complete the reaction on the surface of each microsphere. The plate was read on analyzer Luminex® 100. Each individual microsphere was identified and the result of its bioassay quantified based on fluorescent reporter signals. The concentration was measured using Median Fluorescent Intensity (MFI) data using a 5-parameter logistic curve-fitting method.

KC = test: Quantification of cytokines/chemokines in plasma: KC; type: in vivo, mice; conditions: Example 10; pro-drug in L608 (Merck-32) LNPs, s.c. 0.3 mg mRNA/kg, 7 and 24 hours; vs. Sample S26
Protocol: as §2

[1] = test system: mice (female, Crl:Cd1(ICR)); test: Edema scoring at injection area after subcutaneous administration; type: in vivo
Protocol: as §1

haptoglobin = test: Quantification of haptoglobin in plasma; type: in vivo, mice; conditions: 24 h; for haptoglobin in plasma: s.c. 0.3 mg mRNA/kg
Protocol: as §1
Plasma concentrations of haptoglobin were measured by EMD Millipore's MILLIPLEX® MAP Mouse Acute Phase panel 2 kit (Merck KGaA, Darmstadt, Germany). The sample was first diluted 1:20 000 with Assay buffer then, together with standard's and QC's placed in a 96 well plate. A solution containing beads were then added. The beads were magnetic microspheres each of which was coated with a specific antibody. The mixture was incubated over night at 4° C. and the reaction mixture was then incubated with Streptavidin-PE conjungate to complete the reaction on the surface of each microsphere. The plate was read on analyzer Luminex® 100. Each individual microsphere was identified and the result of its bioassay quantified based on fluorescent reporter signals. The concentration was measured using Median Fluorescent Intensity (MFI) data using a 5-parameter logistic curve-fitting method.

[2] = Example 10, pro-drug in L608 (Merck-32) LNPs, s.c. 0.3 mg mRNA/kg, vs. conventional LNPs (Sample S26)
[3] = Example 10, pro-drug in L608 (Merck-32) LNPs, vs. conventional LNPs (Sample S26)
[4] = Example 6, pro-drug in DLin-MC3-DMA LNPs with mRNA 1, s.c. 0.3 mg mRNA/kg, vs. non-anti-inflammatory LNPs
[5] = Example 6, pro-drug in DLin-MC3-DMA LNPs, vs. non-anti-inflammatory LNPs
[6] = Example 9, in both Acuitas-5 and KL10 based LNPs, s.c. 0.3 mg/kg, compared to LNPs based on DLin-MC3-DMA
[7] = Example 7, in both DLin-MC3-DMA or Merck-32 based LNPs

Compound	expression of mRNA 1 (plasma) (mRNA 1 protein)	plasma IL-6 (IL-6)	plasma KC (KC)	inflammation measured as edema scoring [1, 2]	haptoglobin in plasma (haptoglobin; [3])	protein expression (plasma mRNA 1 protein) (mRNA 1 protein)	inflammation measured as edema scoring [1, 4]	haptoglobin in plasma (haptoglobin; [5])	mRNA 1 protein expression (mRNA 1 protein; Example 9, time interval 0-24 h, Acuitas-5 and KL10 LNPs with vs without rofleponide myristate)	inflammation measured as edema scoring [1, 6]	plasma haptoglobin (haptoglobin; [6])	expression of mRNA 1 protein (mRNA 1 protein; [7])	inflammation measured as edema scoring ([1]; Example 7, in both DLin-MC3-DMA or Merck-32 based LNPs, s.c. 0.3 mg mRNA/kg, 24 h, vs same LNPs without)	haptoglobin in plasma (haptoglobin; [7])
CCCCCCCCCCCCCCCC(=O)OCC(=O)[C@@]12OC(CCC)O[C@@H]1C[C@H]1[C@@H]3CCC4=CC(=O)C=C[C@]4(C)[C@H]3[C@@H](O)C[C@@]12C (stereo partly shown) [B-C16, budesonide palmitate]	increased and prolonged expression of mRNA 1	significantly reduce	significantly reduce	significantly reduce	significantly reduce	–	–	–	–	–	–	–	–	–
CCCCCCCC/C=C\CCCCCCCC(=O)OCC(=O)[C@@]12OC(CCC)O[C@@H]1C[C@H]1[C@@H]3CCC4=CC(=O)C=C[C@]4(C)[C@H]3[C@@H](O)C[C@@]12C (stereo partly shown) [B-C18:1, budesonide oleate]	increased and prolonged expression of mRNA 1	significantly reduce	significantly reduce	significantly reduce	significantly reduce	–	–	–	–	–	–	–	–	–
CCCCC(=O)OCC(=O)[C@@]12O[C@H](CCC)O[C@@H]1C[C@H]1[C@@H]3C[C@H](F)C4=CC(=O)CC[C@]4(C)[C@@]3(F)[C@@H](O)C[C@@]12C [R-C5, rofleponide valerate]	–	–	–	–	–	did not produce a significantly increased total protein expression	not significantly influenced	not significantly influenced	–	–	–	–	–	–
CCCCCCCCCCCCCCCCCC(=O)OCC(=O)[C@@]12O[C@H](CCC)O[C@@H]1C[C@H]1[C@@H]3C[C@H](F)C4=CC(=O)CC[C@]4(C)[C@@]3(F)[C@@H](O)C[C@@]12C [R-C18, rofleponide stearate]	–	–	–	–	–	increased and prolonged protein expression	significantly reduced	significantly reduced	–	–	–	–	–	–
CCCCCCCCCCCCCC(=O)OCC(=O)C12OC(CCC)OC1CC1C3CC(F)C4=CC(=O)CCC4(C)C3(F)C(O)CC12C (stereo not shown) [R-C14, rofleponide myristate]	increased and prolonged expression of mRNA 1	significantly reduce	significantly reduce	significantly reduce	significantly reduce	increased and prolonged protein expression	significantly reduced	significantly reduced	increased	reduced	reduced	–	–	–
CCCCCCCCCCCCCCCC(=O)OCC(=O)C12OC(CCC)OC1CC1C3CC(F)C4=CC(=O)CCC4(C)C3(F)C(O)CC12C (stereo not shown) [R-C16, rofleponide palmitate]	–	–	–	–	–	increased and prolonged protein expression	significantly reduced	significantly reduced	–	–	–	increased expression of mRNA 1 protein	significantly reduced	significantly reduced
CCCCCCCCCCCCCC(=O)OCC(=O)[C@@]12OC(CCC)O[C@@H]1C[C@H]1[C@@H]3CCC4=CC(=O)C=C[C@]4(C)[C@H]3[C@@H](O)C[C@@]12C (stereo partly shown) [B-C14, budesonide myristate]	–	not influenced to the same extent	not influenced to the same extent	not influenced to the same extent	not influenced to the same extent	–	–	–	–	–	–	–	–	–
